Test results: patent US20260028365A1 (BIOGEN MA INC., priority 2022, published 2026)
Where a name gives a salt, the structure may show the parent alone.

Tests used:
[1] = target: JH2 domain of human Tyk2 (Homo sapiens (Human), UniProt P29597); assay: JH2 Biochemical Assay (TR-FRET probe displacement); format: binding; conditions: JH2 domain of human Tyk2, TR-FRET probe displacement
[2] = target: Tyk2 (Homo sapiens (Human), UniProt P29597); assay: pSTAT4 Cell Assay (MSD, NK92 cells); format: cell-based; conditions: MSD
Chain of Tyk2 (P29597 whole entry): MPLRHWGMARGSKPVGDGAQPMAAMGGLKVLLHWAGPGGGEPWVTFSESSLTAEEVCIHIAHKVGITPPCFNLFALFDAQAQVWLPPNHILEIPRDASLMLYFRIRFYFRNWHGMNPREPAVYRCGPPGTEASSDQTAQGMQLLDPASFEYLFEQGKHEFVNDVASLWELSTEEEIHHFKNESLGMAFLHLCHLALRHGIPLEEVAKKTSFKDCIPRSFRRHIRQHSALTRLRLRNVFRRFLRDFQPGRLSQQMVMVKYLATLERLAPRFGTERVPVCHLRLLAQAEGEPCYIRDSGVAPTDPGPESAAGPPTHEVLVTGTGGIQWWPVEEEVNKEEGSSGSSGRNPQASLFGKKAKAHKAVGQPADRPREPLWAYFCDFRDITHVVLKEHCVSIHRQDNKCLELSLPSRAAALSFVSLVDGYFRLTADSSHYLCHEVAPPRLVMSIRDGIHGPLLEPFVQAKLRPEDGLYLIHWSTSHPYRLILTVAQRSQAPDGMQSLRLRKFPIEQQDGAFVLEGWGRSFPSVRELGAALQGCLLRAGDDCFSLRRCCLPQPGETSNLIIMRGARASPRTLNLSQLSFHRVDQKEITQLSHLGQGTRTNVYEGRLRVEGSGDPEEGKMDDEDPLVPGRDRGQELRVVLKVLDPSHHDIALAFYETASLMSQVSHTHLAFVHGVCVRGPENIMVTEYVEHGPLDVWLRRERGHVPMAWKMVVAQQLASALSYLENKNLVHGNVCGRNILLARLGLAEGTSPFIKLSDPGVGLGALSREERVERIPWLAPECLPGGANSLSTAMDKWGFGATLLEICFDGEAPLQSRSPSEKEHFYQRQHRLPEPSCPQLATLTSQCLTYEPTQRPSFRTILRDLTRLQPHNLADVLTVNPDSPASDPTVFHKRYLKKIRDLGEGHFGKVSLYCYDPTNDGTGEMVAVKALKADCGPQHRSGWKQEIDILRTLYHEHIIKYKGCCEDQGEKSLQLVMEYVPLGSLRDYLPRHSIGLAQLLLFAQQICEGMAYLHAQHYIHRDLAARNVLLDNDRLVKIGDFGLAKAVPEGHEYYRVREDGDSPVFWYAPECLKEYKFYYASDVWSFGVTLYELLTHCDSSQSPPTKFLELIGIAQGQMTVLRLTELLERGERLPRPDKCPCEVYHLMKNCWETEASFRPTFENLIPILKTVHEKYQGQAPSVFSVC

Chain of JH2 domain of human Tyk2 (P29597 575-876): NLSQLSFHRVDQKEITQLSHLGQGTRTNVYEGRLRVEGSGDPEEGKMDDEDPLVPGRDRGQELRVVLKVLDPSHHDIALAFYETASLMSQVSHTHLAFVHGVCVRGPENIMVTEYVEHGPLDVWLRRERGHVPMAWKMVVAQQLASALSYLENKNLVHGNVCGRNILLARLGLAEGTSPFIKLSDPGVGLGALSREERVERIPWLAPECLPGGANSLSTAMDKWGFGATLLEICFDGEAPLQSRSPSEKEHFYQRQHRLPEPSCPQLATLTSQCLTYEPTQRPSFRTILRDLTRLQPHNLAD

SMILES	IC50 [1] [nM]	IC50 [2] [nM]
CC(=O)Nc1cc(Nc2cc(C)nc(C(C)(F)F)n2)c(OC[C@]23CO[C@](CF)(C2)C3)cn1 [Example 421, N-(4-((2-(1,1-difluoroethyl)-6-methylpyrimidin-4-yl)amino)-5-(((1r,4s)-1-(fluoromethyl)-2-oxabicyclo[2.1.1]hexan-4-yl)methoxy)pyridin-2-yl)acetamide]	≤ 10	10 to 100
CC(=O)Nc1cc(Nc2cc(C)nc(C(C)(F)F)n2)c(OCC2CC23CC3)cn1 (stereo not shown) [Example 422, N-(4-((2-(1,1-difluoroethyl)-6-methylpyrimidin-4-yl)amino)-5-(spiro[2.2]pentan-1-ylmethoxy)pyridin-2-yl)acetamide]	≤ 10	10 to 100
CC(=O)Nc1cc(Nc2cc(C)nc(C(C)(F)F)n2)c(OC[C@]23CC[C@@H](CC2)O3)cn1 [Example 423, N-(5-(((1r,4r)-7-oxabicyclo[2.2.1]heptan-1-yl)methoxy)-4-((2-(1,1-difluoroethyl)-6-methylpyrimidin-4-yl)amino)pyridin-2-yl)acetamide]	≤ 10	10 to 100
CCC(COc1cnc(NC(C)=O)cc1Nc1cc(C)nc(C(C)(F)F)n1)OC (stereo not shown) [Example 424, N-(4-((2-(1,1-difluoroethyl)-6-methylpyrimidin-4-yl)amino)-5-(2-methoxybutoxy)pyridin-2-yl)acetamide]	≤ 10	10 to 100
CC(=O)Nc1cc(Nc2cc(C)nc(C(C)(F)F)n2)c(OCC(C)OC(C)(C)C)cn1 (stereo not shown) [Example 427, N-(5-(2-(tert-butoxy)propoxy)-4-((2-(1,1-difluoroethyl)-6-methylpyrimidin-4-yl)amino)pyridin-2-yl)acetamide]	≤ 10	10 to 100
CC(=O)Nc1cc(Nc2cc(C)nc(C(C)(F)F)n2)c(OCC(F)C(C)C)cn1 (stereo not shown) [Example 429, N-(4-((2-(1,1-difluoroethyl)-6-methylpyrimidin-4-yl)amino)-5-(2-fluoro-3-methylbutoxy)pyridin-2-yl)acetamide]	≤ 10	10 to 100
CC(=O)Nc1cc(Nc2cc(C)nc(C(C)(F)F)n2)c(OCC2(C)CCOC2)cn1 (stereo not shown) [Example 431, N-(4-((2-(1,1-difluoroethyl)-6-methylpyrimidin-4-yl)amino)-5-((3-methyltetrahydrofuran-3-yl)methoxy)pyridin-2-yl)acetamide]	≤ 10	100 to 1000
CC(=O)Nc1cc(Nc2cc(C)nc(C(C)(F)F)n2)c(OCC2CC23CCOC3)cn1 (stereo not shown) [Example 432, N-(5-((5-oxaspiro[2.4]heptan-1-yl)methoxy)-4-((2-(1,1-difluoroethyl)-6-methylpyrimidin-4-yl)amino)pyridin-2-yl)acetamide]	≤ 10	10 to 100
CC(=O)Nc1cc(Nc2cc(C)nc(C(C)(F)F)n2)c(OCC2CC3(CCC3)CO2)cn1 (stereo not shown) [Example 433, N-(5-((6-oxaspiro[3.4]octan-7-yl)methoxy)-4-((2-(1,1-difluoroethyl)-6-methylpyrimidin-4-yl)amino)pyridin-2-yl)acetamide]	≤ 10	≤ 10
CC(=O)Nc1cc(Nc2cc(C)nc(C(C)(F)F)n2)c(OCCCC2CCCO2)cn1 (stereo not shown) [Example 434, N-(4-((2-(1,1-difluoroethyl)-6-methylpyrimidin-4-yl)amino)-5-(3-(tetrahydrofuran-2-yl)propoxy)pyridin-2-yl)acetamide]	≤ 10	10 to 100
COc1cnc(NC(C)=O)cc1Nc1nc(C)cc(C(F)(F)F)n1 [Example 436, N-(5-methoxy-4-((4-methyl-6-(trifluoromethyl)pyrimidin-2-yl)amino)pyridin-2-yl)acetamide]	100 to 1000	≥ 1000
COCCOc1cnc(NC(C)=O)cc1Nc1cncc(C(C)(C)F)n1 [Example 439, N-(4-((6-(2-fluoropropan-2-yl)pyrazin-2-yl)amino)-5-(2-methoxyethoxy)pyridin-2-yl)acetamide]	≤ 10	10 to 100
COCC(C)COc1cnc(NC(C)=O)cc1Nc1cc(C)nc(C(C)(F)F)n1 (stereo not shown) [Example 440, N-(4-((2-(1,1-difluoroethyl)-6-methylpyrimidin-4-yl)amino)-5-(3-methoxy-2-methylpropoxy)pyridin-2-yl)acetamide]	≤ 10	10 to 100
COCCOc1cnc(NC(C)=O)cc1Nc1nc(C)cc(C(C)(C)F)n1 [Example 441, N-(4-((4-(2-fluoropropan-2-yl)-6-methylpyrimidin-2-yl)amino)-5-(2-methoxyethoxy)pyridin-2-yl)acetamide]	≤ 10	100 to 1000
CC(=O)Nc1cc(Nc2cc(C)nc(C(C)(F)F)n2)c(OCC2COCC3(CCC3)O2)cn1 (stereo not shown) [Example 443, N-(5-((5,8-dioxaspiro[3.5]nonan-6-yl)methoxy)-4-((2-(1,1-difluoroethyl)-6-methylpyrimidin-4-yl)amino)pyridin-2-yl)acetamide]	≤ 10	10 to 100
CC(=O)Nc1cc(Nc2cc(C)nc(C(C)(F)F)n2)c(OCCC(C)F)cn1 (stereo not shown) [Example 444, N-(4-((2-(1,1-difluoroethyl)-6-methylpyrimidin-4-yl)amino)-5-(3-fluorobutoxy)pyridin-2-yl)acetamide]	≤ 10	10 to 100
COC(=O)Nc1cc(Nc2cc(OC3CC3)nc(C(C)(F)F)n2)c(OCCN(C)C)cn1 [Example 447, methyl (4-((6-cyclopropoxy-2-(1,1-difluoroethyl)pyrimidin-4-yl)amino)-5-(2-(dimethylamino)ethoxy)pyridin-2-yl)carbamate]	≤ 10	10 to 100
COc1cnc(NC(C)=O)cc1Nc1cc(C)nc(C23COC(C2)C3)n1 [Example 448, N-(4-((2-(2-oxabicyclo[2.1.1]hexan-4-yl)-6-methylpyrimidin-4-yl)amino)-5-methoxypyridin-2-yl)acetamide]	10 to 100	100 to 1000
COc1cnc(NC(C)=O)cc1Nc1cc(C)nc(C23COC(C)(C2)C3)n1 [Example 449, N-(5-methoxy-4-((6-methyl-2-(1-methyl-2-oxabicyclo[2.1.1]hexan-4-yl)pyrimidin-4-yl)amino)pyridin-2-yl)acetamide]	100 to 1000	≥ 1000
COc1cnc(NC(C)=O)cc1Nc1ccnc(C2CCOC2)n1 (stereo not shown) [Example 450, N-(5-methoxy-4-((2-(tetrahydrofuran-3-yl)pyrimidin-4-yl)amino)pyridin-2-yl)acetamide]	10 to 100	≥ 1000
COc1cnc(NC(C)=O)cc1Nc1cc(C)nc(C2CCOC2)n1 (stereo not shown) [Example 451, N-(5-methoxy-4-((6-methyl-2-(tetrahydrofuran-3-yl)pyrimidin-4-yl)amino)pyridin-2-yl)acetamide]	10 to 100	≥ 1000
COc1cnc(NC(C)=O)cc1Nc1cc(OC2CCC2)nc(C(C)(F)F)n1 [Example 455, N-(4-((6-cyclobutoxy-2-(1,1-difluoroethyl)pyrimidin-4-yl)amino)-5-methoxypyridin-2-yl)acetamide trifluoroacetate]	≤ 10	≤ 10
COc1cnc(NC(C)=O)cc1Nc1cc(OC2CC(C#N)C2)nc(C(C)(F)F)n1 (stereo not shown) [Example 456, N-(4-((6-(3-cyanocyclobutoxy)-2-(1,1-difluoroethyl)pyrimidin-4-yl)amino)-5-methoxypyridin-2-yl)acetamide]	≤ 10	10 to 100
